As a reminder, the IC50 is the concentration needed to halve the response being measured.

The text below walks through data of US5314914A, “Methods and compositions for combatting herpes viruses” (BioMega/Boehringer Ingelheim Research Inc., priority 1988, dated 1994).

The target in assay [1] is HSV-1 ribonucleotide reductase (Human alphaherpesvirus 1 strain 17, UniProt P08543+P10224). As to the kind of experiment: HSV-1 ribonucleotide reductase inhibition (reduction of CDP). The format is biochemical, herpes simplex virus type 1 (strain F). Particulars: for selective inhibition of the viral (HSV-1) ribonucleotide reductase over the cellular ribonucleotide reductase: HSV-1 versus hamster 96-V-2(600) ribonucleotide reductase.
Chain of HSV-1 ribonucleotide reductase (P08543 whole entry): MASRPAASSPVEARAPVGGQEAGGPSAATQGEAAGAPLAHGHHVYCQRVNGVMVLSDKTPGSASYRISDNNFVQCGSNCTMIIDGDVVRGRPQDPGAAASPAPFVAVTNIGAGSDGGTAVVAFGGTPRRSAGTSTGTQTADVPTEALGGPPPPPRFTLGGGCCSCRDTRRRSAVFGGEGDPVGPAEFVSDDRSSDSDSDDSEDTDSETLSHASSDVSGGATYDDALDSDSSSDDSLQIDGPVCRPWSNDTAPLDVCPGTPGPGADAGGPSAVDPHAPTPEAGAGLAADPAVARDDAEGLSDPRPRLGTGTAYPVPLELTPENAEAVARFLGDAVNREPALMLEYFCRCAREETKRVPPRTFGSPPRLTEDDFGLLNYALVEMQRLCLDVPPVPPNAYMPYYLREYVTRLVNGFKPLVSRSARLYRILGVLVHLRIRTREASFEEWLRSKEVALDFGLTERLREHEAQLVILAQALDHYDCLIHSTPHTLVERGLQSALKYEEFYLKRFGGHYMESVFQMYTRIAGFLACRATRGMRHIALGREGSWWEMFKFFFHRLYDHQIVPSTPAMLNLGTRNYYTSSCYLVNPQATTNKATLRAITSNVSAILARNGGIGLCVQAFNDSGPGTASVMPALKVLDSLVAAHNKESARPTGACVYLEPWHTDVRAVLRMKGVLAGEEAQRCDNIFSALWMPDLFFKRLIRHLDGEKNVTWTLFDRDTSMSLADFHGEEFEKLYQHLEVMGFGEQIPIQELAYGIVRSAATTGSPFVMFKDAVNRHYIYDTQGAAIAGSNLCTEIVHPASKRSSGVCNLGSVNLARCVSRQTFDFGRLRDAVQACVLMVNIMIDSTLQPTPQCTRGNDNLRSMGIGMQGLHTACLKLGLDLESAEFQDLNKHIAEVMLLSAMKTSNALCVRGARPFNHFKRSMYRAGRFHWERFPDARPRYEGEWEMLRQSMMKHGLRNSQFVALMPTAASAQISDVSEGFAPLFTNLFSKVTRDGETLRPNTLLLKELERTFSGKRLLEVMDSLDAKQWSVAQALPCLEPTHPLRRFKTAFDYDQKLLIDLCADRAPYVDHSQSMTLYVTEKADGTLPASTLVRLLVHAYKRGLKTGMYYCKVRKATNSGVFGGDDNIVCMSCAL
Chain of HSV-1 ribonucleotide reductase (P10224 whole entry): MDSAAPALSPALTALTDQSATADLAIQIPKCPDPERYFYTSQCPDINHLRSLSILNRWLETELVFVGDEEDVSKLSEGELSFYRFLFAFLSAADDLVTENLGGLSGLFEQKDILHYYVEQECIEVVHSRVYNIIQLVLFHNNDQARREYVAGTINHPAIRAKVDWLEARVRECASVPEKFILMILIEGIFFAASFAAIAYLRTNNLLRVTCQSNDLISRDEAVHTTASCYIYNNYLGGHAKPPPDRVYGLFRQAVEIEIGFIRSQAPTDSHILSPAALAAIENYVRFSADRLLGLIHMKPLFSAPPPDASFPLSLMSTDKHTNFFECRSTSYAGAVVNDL

In assay [2] the target is T1, hamster 96-V-2(600) ribonucleotide reductase (Cricetulus griseus, UniProt G3I2K8+G3I3B7).
T1 construct: obtained from an overproducing strain of a Chinese hamster lung cell line; endogenous in cells; host or cells: overproducing strain 96-V-2(600) of a Chinese hamster lung cell line; partially purified
T1 sequence (G3I2K8 entry or part of it): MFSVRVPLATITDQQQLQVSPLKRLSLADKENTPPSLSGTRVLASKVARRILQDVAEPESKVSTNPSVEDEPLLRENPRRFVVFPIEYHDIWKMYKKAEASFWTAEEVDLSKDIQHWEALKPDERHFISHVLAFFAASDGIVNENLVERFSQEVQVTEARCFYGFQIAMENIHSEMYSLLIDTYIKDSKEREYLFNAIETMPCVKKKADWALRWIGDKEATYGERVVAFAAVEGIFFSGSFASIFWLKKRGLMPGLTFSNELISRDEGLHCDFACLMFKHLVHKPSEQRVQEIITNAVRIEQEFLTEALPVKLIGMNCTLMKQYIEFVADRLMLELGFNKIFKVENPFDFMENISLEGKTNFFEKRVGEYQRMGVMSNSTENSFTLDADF
T1 sequence (G3I3B7 entry or part of it): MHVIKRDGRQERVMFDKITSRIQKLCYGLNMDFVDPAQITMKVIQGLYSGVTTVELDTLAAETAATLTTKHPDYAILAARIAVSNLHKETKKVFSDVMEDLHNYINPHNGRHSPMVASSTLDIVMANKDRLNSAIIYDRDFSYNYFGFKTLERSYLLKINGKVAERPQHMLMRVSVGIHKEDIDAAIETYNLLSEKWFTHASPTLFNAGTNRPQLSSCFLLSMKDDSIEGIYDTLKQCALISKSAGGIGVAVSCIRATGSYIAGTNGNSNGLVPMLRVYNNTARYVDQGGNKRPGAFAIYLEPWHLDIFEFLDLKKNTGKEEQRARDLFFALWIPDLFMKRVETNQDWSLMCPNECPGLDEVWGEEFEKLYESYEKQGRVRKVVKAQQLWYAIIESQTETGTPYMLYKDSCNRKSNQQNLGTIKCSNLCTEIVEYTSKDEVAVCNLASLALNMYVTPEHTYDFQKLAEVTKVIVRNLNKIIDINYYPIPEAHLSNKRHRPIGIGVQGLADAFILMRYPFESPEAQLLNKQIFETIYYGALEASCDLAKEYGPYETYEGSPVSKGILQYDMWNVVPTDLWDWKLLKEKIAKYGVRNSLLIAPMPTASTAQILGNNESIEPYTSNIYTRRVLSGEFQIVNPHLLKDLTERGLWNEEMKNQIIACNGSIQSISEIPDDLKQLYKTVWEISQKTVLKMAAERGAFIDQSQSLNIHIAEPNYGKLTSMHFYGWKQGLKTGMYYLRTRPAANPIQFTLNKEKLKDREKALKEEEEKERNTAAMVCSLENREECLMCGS
As to the kind of experiment: Hamster 96-V-2(600) ribonucleotide reductase inhibition (reduction of CDP). In kind it is biochemical, Chinese hamster. Particulars: partially purified enzyme 40 μg, in the presence of adenosine triphosphate (4 mM) and magnesium chloride (11.5 mM). The method, then: Hamster 96-V-2(600) ribonucleotide reductase (partially purified) was obtained from an overproducing strain of a Chinese hamster lung cell line as described by W. H. Lewis and P. R. Srinivasan, Mol. Cell Biol., 3, 1053 (1983).
Samples of the HSV-1 ribonucleotide reductase (65 μg with a specific activity of 26 units per mg) were mixed with increasing concentrations of the test compound, i.e. the naphthalene noted in the title of this example, in a series of tubes. Ribonucleotide reductase activity was assayed by monitoring the reduction of cytidine diphosphate (CDP) as described by Cohen et al., supra. The standard reaction mixture, in a final volume of 60 μl, contained: 50 mM, N-2-hydroxyethylpiperazine-N'-2-ethanesulfonic acid (pH 7.8); 4 mM NaF, 30 mM DL-dithiothreitol (DTT); 1 mM bacitracin, 54 μM CDP and 0.25 μCi of [^3 H]CDP. After 30 minutes of incubation at 37° C., the reaction was stopped by immersing the tube in boiling water for 4 minutes. The precipitate was removed by centrifugation. Nucleotides in the supernatant were converted to nucleosides by enzymatic hydrolysis. The deoxyribonucleosides were subsequently separated from the ribonucleosides by ascending polyethyleneimine-celulose chromatography. […] The results, shown in FIGURE 1, are expressed as a percentage of the activity obtained in the controls.

As for `CCOC1=C(OCC)C(=O)c2cc(Cl)ccc2C1=O` [6-chloro-2,3-diethoxy-1,4-naphthalenedione], the “selective inhibition of the viral (HSV-1) ribonucleotide reductase over the cellular ribonucleotide reductase” value in assay [1] was “selective inhibition”.
For `COC1=C(OC)C(=O)c2cc(C#N)ccc2C1=O` [6-cyano-2,3-dimethoxy-1,4-naphthalenedione], the “selective inhibition of the viral (HSV-1) ribonucleotide reductase over the cellular ribonucleotide reductase” value in assay [1] is on record as “selective inhibition”.
As for `COC1=C(OC)C(=O)c2cc(Cl)ccc2C1=O` [6-Chloro-2,3-dimethoxy-1,4-naphthalenedione], the IC50 in assay [2] was over 250 µM. Moreover, the “selective inhibition of the viral (HSV-1) ribonucleotide reductase over the cellular ribonucleotide reductase” value in assay [1] is listed as “selective inhibition”. Besides, the “inhibitory effect of increasing concentrations on HSV-1 ribonucleotide reductase activity (FIG. 1, percentage of control activity)” value in assay [1] (increasing concentrations of the test compound) was “progressively greater inhibitory effect”.
With `COC1=C(OC)C(=O)c2ccccc2C1=O` [2,3-dimethoxy-1,4-naphthalenedione], in assay [1], the “selective inhibition of the viral (HSV-1) ribonucleotide reductase over the cellular ribonucleotide reductase” value was “selective inhibition”.
In the case of `CCCOC1=C(OCCC)C(=O)c2cc(Cl)ccc2C1=O` [6-chloro-2,3-dipropoxy-1,4-naphthalenedione], in assay [1], the “selective inhibition of the viral (HSV-1) ribonucleotide reductase over the cellular ribonucleotide reductase” value is listed as “selective inhibition”.
Regarding `COC1=C(OC)C(=O)c2cc(OC)ccc2C1=O` [2,3,6-trimethoxy-1,4-naphthalenedione], the “selective inhibition of the viral (HSV-1) ribonucleotide reductase over the cellular ribonucleotide reductase” value in assay [1] is “selective inhibition”.
